{
  "source": "patent US12144351B2",
  "about": "“Herbicidal mixtures comprising L-glufosinate and their use in corn cultures” (priority 2017, dated 2024)",
  "experiment_in_all_cases": "Post emergence treatment, greenhouse pot test, herbicidal activity",
  "format_in_all_cases": "in vivo",
  "settings_in_all_cases": "scale 0 to 100",
  "key": {"[1]": {"system": "ECHCG (Echinochloa crus-galli)", "protocol": "(§1) The analysis of synergism or antagonism between the mixtures or compositions was determined using Colby's equation.\n(§2) The culture containers used were plastic flowerpots containing loamy sand with approximately 3.0% of humus as the substrate. The seeds of the test plants were sown separately for each species and/or resistant biotype. […] The containers were irrigated gently to promote germination and growth and subsequently covered with transparent plastic hoods until the plants had rooted. This cover caused uniform germination of the test plants, unless this had been impaired by the active ingredients. […] For this purpose, the test plants were either sown directly and grown in the same containers, or they were first grown separately as seedlings and transplanted into the test containers a few days prior to treatment. Depending on the species, the plants were kept at 10-25° C. or 20-35° C., respectively. The test period extended to 20 days after treatment. During this time, the plants were tended, and their response to the individual treatments was evaluated. The evaluation was carried out by using a scale from 0 to 100. 100 means no emergence of the plants or complete destruction of at least the above-ground parts, and 0 means no damage, or normal course of growth. Data shown are the mean of two replications."}, "AVEFA (Avena fatua)": {"system": "AVEFA (Avena fatua)", "protocol": "as §1, §2"}, "SETVI (Setaria viridis)": {"system": "SETVI (Setaria viridis)", "protocol": "as §1, §2"}, "[2]": {"system": "ABUTH (Abutilon theophrasti)", "protocol": "as §1, §2"}, "[3]": {"system": "COMBE (Commelina benghalensis)", "protocol": "as §1, §2"}, "[4]": {"system": "CHEAL (Chenopodium album)", "protocol": "as §1, §2"}, "KCHSC (Kochia scoparia)": {"system": "KCHSC (Kochia scoparia)", "protocol": "as §1, §2"}, "[5]": {"settings": "2,4-D as dimethylammonium salt 70 g ai/ha"}, "[6]": {"settings": "2,4-D as dimethylammonium salt 140 g ai/ha"}},
  "data": [
    {"compound": "C#CCN1C(=O)C(F)(F)Oc2cc(F)c(-n3c(=O)n(C)c(=S)n(C)c3=O)cc21", "note": "[Trifludimoxazin, trifludimoxazin]", "values": [
      {"measurement": "Herbicidal activity against ECHCG, Found", "setting": "[1]; Trifludimoxazin 0.25 g ai/ha", "value": 10}
    ]},
    {"compound": "CNC.O=C(O)COc1ccc(Cl)cc1Cl", "note": "[2,4-D as dimethylammonium salt, 2,4-D dimethylammonium salt]", "values": [
      {"measurement": "Herbicidal activity against AVEFA, Found", "setting": "AVEFA (Avena fatua); [5]", "value": 0},
      {"measurement": "Herbicidal activity against AVEFA, Found", "setting": "AVEFA (Avena fatua); [6]", "value": 0},
      {"measurement": "Herbicidal activity against SETVI, Found", "setting": "SETVI (Setaria viridis); [5]", "value": 0},
      {"measurement": "Herbicidal activity against SETVI, Found", "setting": "SETVI (Setaria viridis); [6]", "value": 0}
    ]},
    {"compound": "CCOCCN(C(=O)CCl)C(=C(C)C)c1ccccc1", "note": "[Pethoxamid, pethoxamid]", "values": [
      {"measurement": "Herbicidal activity against AVEFA, Found", "setting": "AVEFA (Avena fatua); Pethoxamid 50 g ai/ha", "value": 0},
      {"measurement": "Herbicidal activity against AVEFA, Found", "setting": "AVEFA (Avena fatua); Pethoxamid 100 g ai/ha", "value": 0},
      {"measurement": "Herbicidal activity against ABUTH, Found", "setting": "[2]; Pethoxamid 50 g ai/ha", "value": 0},
      {"measurement": "Herbicidal activity against ABUTH, Found", "setting": "[2]; Pethoxamid 100 g ai/ha", "value": 0}
    ]},
    {"compound": "CP(=O)(O)CC[C@H](N)C(=O)O", "note": "[L-Glufosinate, (2S)-2-amino-4-[hydroxy(methyl)phosphinoyl]butyric acid]", "values": [
      {"measurement": "Herbicidal activity against AVEFA, Found", "setting": "AVEFA (Avena fatua); L-Glufosinate 75 g ai/ha", "value": 0},
      {"measurement": "Herbicidal activity against AVEFA, Found", "setting": "AVEFA (Avena fatua); L-Glufosinate 150 g ai/ha", "value": 0},
      {"measurement": "Herbicidal activity against ABUTH, Found", "setting": "[2]; L-Glufosinate 75 g ai/ha", "value": 0},
      {"measurement": "Herbicidal activity against ABUTH, Found", "setting": "[2]; L-Glufosinate 150 g ai/ha", "value": 55},
      {"measurement": "Herbicidal activity against ABUTH, Found", "setting": "[2]; L-Glufosinate 200 g ai/ha", "value": 65},
      {"measurement": "Herbicidal activity against COMBE, Found", "setting": "[3]; L-Glufosinate 100 g ai/ha", "value": 0}
    ]},
    {"compound": "bicyclopyrone", "values": [
      {"measurement": "Herbicidal activity against ECHCG, Found", "setting": "[1]; Bicyclopyrone 1 g ai/ha", "value": 0},
      {"measurement": "Herbicidal activity against ECHCG, Found", "setting": "[1]; Bicyclopyrone 2 g ai/ha", "value": 0},
      {"measurement": "Herbicidal activity against COMBE, Found", "setting": "[3]; Bicyclopyrone 1 g ai/ha", "value": 0},
      {"measurement": "Herbicidal activity against COMBE, Found", "setting": "[3]; Bicyclopyrone 2 g ai/ha", "value": 10}
    ]},
    {"compound": "CCc1cccc(C)c1N(C(=O)CCl)[C@@H](C)COC", "note": "[S-Metolachlor, S-metolachlor]", "values": [
      {"measurement": "Herbicidal activity against CHEAL, Found", "setting": "[4]; S-Metolachlor 500 g ai/ha", "value": 20},
      {"measurement": "Herbicidal activity against CHEAL, Found", "setting": "[4]; S-Metolachlor 1000 g ai/ha", "value": 75}
    ]},
    {"compound": "Dicamba dimethylammonium salt [Dicamba as dimethylammonium salt]", "values": [
      {"measurement": "Herbicidal activity against SETVI, Found", "setting": "SETVI (Setaria viridis); Dicamba as dimethylammonium salt 35 g ai/ha", "value": 0},
      {"measurement": "Herbicidal activity against SETVI, Found", "setting": "SETVI (Setaria viridis); Dicamba as dimethylammonium salt 70 g ai/ha", "value": 0},
      {"measurement": "Herbicidal activity against SETVI, Found", "setting": "SETVI (Setaria viridis); Dicamba as dimethylammonium salt 140 g ai/ha", "value": 30}
    ]},
    {"compound": "COC[C@H](C)N(C(=O)CCl)c1c(C)csc1C", "note": "[Dimethenamid-P]", "values": [
      {"measurement": "Herbicidal activity against KCHSC, Found", "setting": "KCHSC (Kochia scoparia); Dimethenamid-P 500 g ai/ha", "value": 0},
      {"measurement": "Herbicidal activity against KCHSC, Found", "setting": "KCHSC (Kochia scoparia); Dimethenamid-P 1000 g ai/ha", "value": 70}
    ]}
  ]
}
